Results on 59 sequences are retold here after the supplement of paper PMC11208160.
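Also: IS621 recombinase and bridge RNA in Escherichia coli cells.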

This data set is described as follows: recombinant barcode read abundance after kanamycin selection (control-corrected) (log10(CPM+1)); higher = more efficient recombination; sequences stand for … in AGTGCAGAGAAAATCGGCCAGTTTTCTCTGCCTGCAGTCCGCATGCCGT…AGATTTATGCAGCGGACTGCCTTTCTCCCAAAGTGATAAACCGGACAGTATCATGGACCGGTTTTCCCGGTAATCCGTATTTGCAAGGTTGGTTTCACT; site = the 11-nt target. Summed up: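 Reported as log10(CPM+1), each value stands for recombination efficiency. That efficiency is the averaged, control-corrected counts per million of barcodes found at recombinant junctions. Cells from a pooled E. coli library pairing targets with IS621 bridge RNA target-binding loops were plated twice on chloramphenicol/ampicillin LB agar (control) and twice on chloramphenicol/ampicillin/kanamycin with 0.1 mM IPTG.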
Consider “CTCCTCTCTTGGGTTCTAACCTGTTGCAT (site AAGTGAGCTTG)”, for which the “recombinant barcode read abundance (log10)” value stood at 0.0369.

Regarding “CTCCTCTCTTGGGTTCTAACCTGTTGCAT (site CTCCTCTCTAT)”, the “recombinant barcode read abundance (log10)” value turned out to be 2.03. To “CTCGAACCTTGGGTTCTAACCTGTTGCTG (site CTCGAACCTCA)” belongs 1.93; to “CTCGAACCTTGGGTTCTAACCTGTTGCTG (site CTCGAATCTTA)”, 0.077. To “CTCGGAACTTGGGTTCTAACCTGTTGCCT (site CTCGGAACTAG)” belongs 0.374; to “CTCGGAACTTGGGTTCTAACCTGTTGCCT (site CTCGGACCTAG)”, 0.257. To “CTCGGAACTTGGGTTCTAACCTGTTGCCT (site CTCGGAGCTAG)” belongs 0.325; to “CTCGGAACTTGGGTTCTAACCTGTTGCCT (site CTCGGATCTAG)”, 0.366; to “CTCGGACCTTGGGTTCTAACCTGTTGCCT (site CTCGGAACTAG)”, 0.209. For “CTCGGACCTTGGGTTCTAACCTGTTGCCT (site CTCGGACCTAG)”, the “recombinant barcode read abundance (log10)” value worked out at 2.42. To “CTCGGACCTTGGGTTCTAACCTGTTGCCT (site CTCGGAGCTAG)” belongs 0.147. In the case of “CTCGGACCTTGGGTTCTAACCTGTTGCCT (site CTCGGATCTAG)”, the “recombinant barcode read abundance (log10)” value is 0.263. To “CTCGGATCTTGGGTTCTAACCTGTTGCCT (site CTCGGAACTAG)” belongs 0.0461; to “CTCGGATCTTGGGTTCTAACCTGTTGCCT (site CTCGGACCTAG)”, 0.391. To “CTCGGATCTTGGGTTCTAACCTGTTGCCT (site CTCGGAGCTAG)” belongs 0.0938; to “CTCGGATCTTGGGTTCTAACCTGTTGCCT (site CTCGGATCTAG)”, 1.3; to “CTCGGATCTTGGGTTCTAACCTGTTGCTA (site CTCGGATCTAA)”, 0.135.

In the case of “CTCGGATCTTGGGTTCTAACCTGTTGCTA (site CTCGGATCTCA)”, the “recombinant barcode read abundance (log10)” value is 0.15. On to “CTCGGATCTTGGGTTCTAACCTGTTGCTA (site CTCGGATCTGA)”, for which the “recombinant barcode read abundance (log10)” value was 0.0177. For “CTCGGATCTTGGGTTCTAACCTGTTGCTA (site CTCGGATCTTA)”, the “recombinant barcode read abundance (log10)” value was determined as 0.67.

Take “CTCGGATCTTGGGTTCTAACCTGTTGCTC (site CTCGGATCTAA)”: the “recombinant barcode read abundance (log10)” value worked out at 0. To “CTCGGATCTTGGGTTCTAACCTGTTGCTC (site CTCGGATCTCA)” belongs 0.0519; to “CTCGGATCTTGGGTTCTAACCTGTTGCTC (site CTCGGATCTGA)”, 0.991.

“CTCGGATCTTGGGTTCTAACCTGTTGCTC (site CTCGGATCTTA)”: the “recombinant barcode read abundance (log10)” value is 0.138. To “CTCGGATCTTGGGTTCTAACCTGTTGCTG (site CTCGGATCTAA)” belongs 0.296; to “CTCGGATCTTGGGTTCTAACCTGTTGCTG (site CTCGGATCTCA)”, 1.08. In the case of “CTCGGATCTTGGGTTCTAACCTGTTGCTG (site CTCGGATCTGA)”, the “recombinant barcode read abundance (log10)” value was 0. To “CTCGGATCTTGGGTTCTAACCTGTTGCTG (site CTCGGATCTTA)” belongs 0.133; to “CTCGTACCTTGGGTTCTAACCTGTTGCGG (site CTCGTACCTCC)”, 2.52. To “CTCGTACCTTGGGTTCTAACCTGTTGCGG (site CTCGTAGCTCC)” belongs 0.0696; to “CTCGTAGCTTGGGTTCTAACCTGTTGCCT (site AGTAGTTCTCT)”, 0.223. To “CTCGTAGCTTGGGTTCTAACCTGTTGCCT (site CTCGTAGCTAG)” belongs 0.651; to “CTCGTAGCTTGGGTTCTAACCTGTTGCGG (site CTCGTACCTCC)”, 0.0414; to “CTCGTAGCTTGGGTTCTAACCTGTTGCGG (site CTCGTAGCTCC)”, 1.23. On to “CTCGTCACTTGGGTTCTAACCTGTTGCCT (site CTCGTAACTAG)”, for which the “recombinant barcode read abundance (log10)” value amounted to 0.106. To “CTCGTCACTTGGGTTCTAACCTGTTGCCT (site CTCGTCACTAG)” belongs 1.91; to “CTCGTCACTTGGGTTCTAACCTGTTGCCT (site CTCGTGACTAG)”, 0.0882.

“CTCGTCACTTGGGTTCTAACCTGTTGCCT (site CTCGTTACTAG)”: the “recombinant barcode read abundance (log10)” value is 0.0923. To “CTCGTGACTTGGGTTCTAACCTGTTGCCT (site CTCGTAACTAG)” belongs 0.682; to “CTCGTGACTTGGGTTCTAACCTGTTGCCT (site CTCGTCACTAG)”, 0. To “CTCGTGACTTGGGTTCTAACCTGTTGCCT (site CTCGTGACTAG)” belongs 1.13. To “CTCGTGACTTGGGTTCTAACCTGTTGCCT (site CTCGTTACTAG)” belongs 0.335; to “CTCTAAACTTGGGTTCTAACCTGTTGCCA (site CTCTAAACTTG)”, 0.106. As for “CTCTAAACTTGGGTTCTAACCTGTTGCCA (site CTCTACACTTG)”, the “recombinant barcode read abundance (log10)” value is 0.671. To “CTCTAAACTTGGGTTCTAACCTGTTGCCA (site CTCTAGACTTG)” belongs 0.108; to “CTCTAAACTTGGGTTCTAACCTGTTGCCA (site CTCTATACTTG)”, 0.0391. To “CTCTAAACTTGGGTTCTAACCTGTTGCGA (site CTCTAAACTTC)” belongs 0.919; to “CTCTAAACTTGGGTTCTAACCTGTTGCGA (site CTCTCAGCTTC)”, 0.0639. To “CTCTAACCTTGGGTTCTAACCTGTTGCGT (site CTCTAACCTAC)” belongs 1.45; to “CTCTAACCTTGGGTTCTAACCTGTTGCGT (site CTCTACCCTAC)”, 0.0519; to “CTCTAACCTTGGGTTCTAACCTGTTGCGT (site CTCTAGCCTAC)”, 0.413. For “CTCTAACCTTGGGTTCTAACCTGTTGCGT (site CTCTATCCTAC)”, the “recombinant barcode read abundance (log10)” value came to 0.0249. To “CTCTAGACTTGGGTTCTAACCTGTTGCCT (site CTATAGACTTG)” belongs 0.00655; to “CTCTAGACTTGGGTTCTAACCTGTTGCCT (site CTCTAGACTAG)”, 0.0941. To “CTCTAGCCTTGGGTTCTAACCTGTTGCAT (site CTCTAGCCTAT)” belongs 0.505; to “CTCTAGCCTTGGGTTCTAACCTGTTGCAT (site GTCCAGCCTAT)”, 0; to “CTCTAGTCTTGGGTTCTAACCTGTTGCTT (site CTCTAGTCTAA)”, 0.748. To “CTCTAGTCTTGGGTTCTAACCTGTTGCTT (site CTCTAGTCTAC)” belongs 0.518; to “CTCTAGTCTTGGGTTCTAACCTGTTGCTT (site CTCTAGTCTAG)”, 0.377.
